What all share (type): in vivo
Experiment [1] concerns Erysiphe graminis f.sp.tritici. Nature of the experiment: Erysiphe test (wheat)/protective. The conditions noted are these: protective, application rate 125 g/ha, evaluation 6 days after inoculation. The method, then: Erysiphe Test (Wheat)/Protective To produce a suitable preparation of active compound, a commercial formulation of active compound or active compound combination is diluted with water to the desired concentration. To test for protective activity, young plants are sprayed with the active compound preparation at the stated application rate. After the spray coating has dried on, the plants are dusted with spores of Erysiphe graminis f.sp.tritici. The plants are placed in a greenhouse at a temperature of about 20° C. and a relative atmospheric humidity of about 80% to promote the development of mildew pustules. Evaluation is carried out 6 days after the inoculation. 0% means an efficacy which corresponds to that of the control, whereas an efficacy of 100% means that no infection is observed.

Experiment [2] has as its system Leptosphaeria nodorum. Nature of the experiment: Leptosphaeria nodorum test (wheat)/curative. The conditions noted are these: curative, application rate 500 g/ha, evaluation 12 days after inoculation. The method, then: Leptosphaeria nodorum Test (Wheat)/Curative To produce a suitable preparation of active compound, a commercial formulation of active compound or active compound combination is diluted with water to the desired concentration. To test for curative activity, young plants are sprayed with a conidia suspension of Leptosphaeria nodorum. The plants remain in an incubation cabin at 20° C. and 100% relative atmospheric humidity for 48 hours and are then sprayed with the active compound preparation at the stated application rate. The plants are placed in a greenhouse at a temperature of about 15° C. and a relative atmospheric humidity of about 80%. Evaluation is carried out 12 days after the inoculation. 0% means an efficacy which corresponds to that of the control, whereas an efficacy of 100% means that no infection is observed.

For experiment [3], the system named is Fusarium nivale var. majus. Nature of the experiment: Fusarium nivale (var. majus) test (wheat)/curative. The conditions noted are these: curative, evaluation 11 days after inoculation. The method, then: Fusarium nivale (var. majus) Test (Wheat)/Curative To produce a suitable preparation of active compound, a commercial formulation of active compound or active compound combination is diluted with water to the desired concentration. To test for curative activity, young plants are sprayed with a conidia suspension of Fusarium nivale var. majus. The plants remain in an incubation cabin at 15° C. and 100% relative atmospheric humidity for 24 hours and are then sprayed with the active compound preparation at the stated application rate. After the spray coating has dried on, the plants remain in a greenhouse under transparent incubation hoods at a temperature of about 15° C. and a relative atmospheric humidity of about 100%. Evaluation is carried out 11 days after the inoculation. 0% means an efficacy which corresponds to that of the control, whereas an efficacy of 100% means that no infection is observed.

As for `CCCN(CC)CC1COC2(CCC(C(C)(C)C)CC2)O1` (stereo not drawn) [(I) spiroxamine, 8-tert-butyl-1,4-dioxaspiro[4.5]decan-2-ylmethyl(ethyl)(propyl)amine], the Efficacy in % in experiment [1] is recorded as 33%; in experiment [2], 0%. Moreover, in experiment [3] (application rate 140 g/ha), the “Efficacy in % found” value was found to be 17%.

On to `OC(Cc1ccccc1Cl)(Cn1nc[nH]c1=S)C1(Cl)CC1` (stereo not drawn) [(II) prothioconazole, prothioconazole], for which the Efficacy in % amounted to 78% in experiment [1] and 20% in experiment [2]. The “Efficacy in % found” value in experiment [3] (application rate 55 g/ha) is 17%.

Turning to `CC(C)(C)C(O)(CCc1ccc(Cl)cc1)Cn1cncn1` (stereo not drawn) [(III) tebuconazole, tebuconazole], the values for the Efficacy in % in experiment [1] and in experiment [2] were 78% and 40%, respectively. In addition, in experiment [3] (application rate 55 g/ha), the “Efficacy in % found” value is on record as 33%.
